Experimental data as given in article PMC3057119 (Bioorganic & medicinal chemistry letters, 2011).

Test system: p53-dependent luciferase reporter in U2OS cells
Test: p53-dependent luciferase reporter activation
Format: cell-based
Conditions: U2OS cells stably expressing p53-dependent luciferase reporter, 5 μM

## COc1ccc(C2=N[C@@H](c3ccc(Cl)cc3)[C@@H](c3ccc(Cl)cc3)N2C(=O)N2CCNC(=O)C2)c(OC(C)C)c1 [Nutlin-3, nutlin-3]
  increase in luciferase activation: 4 fold
